# Assay results from paper PMC7826463, “Pamiparib dose escalation in Chinese patients with non‐mucinous high‐grade ovarian cancer or advanced triple‐negative breast cancer” (Cancer Medicine, 2020).
# Test system: Chinese patients with advanced HGOC or TNBC
# Assay: Safety/tolerability (adverse events per NCI-CTCAE v4.03, DLTs) in phase 1 dose escalation (NCT03333915)
# Type: in vivo
# Conditions: for Discontinued treatment: Adverse event: count (percent)
# Description: This phase 1/2, open‐label, multicenter study assessed the safety and antitumor activity of pamiparib in Chinese patients ≥18 years with advanced solid tumors whose disease progressed despite standard therapy or for which there is no standard therapy. Phase 1 was a dose‐escalation study, with a 3 + 3 design, that evaluated the single‐agent safety/tolerability, pharmacokinetic (PK) profile, and preliminary antitumor activity of pamiparib and confirmed the RP2D in Chinese patients (Figure 1). The phase 2 dose‐expansion component of this study is investigating the single‐agent antitumor activity and safety/tolerability of pamiparib.
# In phase 1, patients received pamiparib at 20, 40, and 60 mg BID dose levels. The starting dose for pamiparib (20 mg BID) was selected as one‐third of the RP2D (60 mg BID) and one‐fourth of the MTD (80 mg BID), which were determined in the FIH study. […] Safety evaluations, including dose‐limiting toxicities (DLTs), of ≥3 patients completing one cycle of treatment at a specific dose level were required before proceeding to the next cohort with a higher dose level. Patients could continue the study treatment in 21‐day cycles and subsequent cycles at the discretion of the investigator.
# The primary objective in phase 1 was to evaluate the safety and tolerability of pamiparib. Safety and tolerability endpoint assessments were based on monitoring of treatment‐emergent adverse events (AEs), in addition to vital signs, electrocardiograms, physical examinations, and clinical laboratory results. The incidence and severity of all AEs and incidence of serious AEs were assessed according to the National Cancer Institute‐Common Terminology Criteria for Adverse Events v4.03.
# Approximately 14 to 18 evaluable patients were expected to enroll in the phase 1 part of the study. The safety population included all patients who received ≥1 dose of pamiparib. The PK population included all patients for whom valid pamiparib PK parameters could be estimated. Antitumor activity per RECIST v1.1 was assessed in all evaluable patients. Patients were considered response evaluable if they had measurable disease at baseline per RECIST v1.1 and had ≥1 post‐baseline tumor assessment, unless treatment had been discontinued due to clinical progression or death prior to tumor assessment. The population evaluable for CA‐125 response included patients in the safety population with baseline CA‐125 ≥2 x upper limit of normal.
structure (smiles),measurement,setting,value
"C[C@]12CCCN1CC1=NNC(=O)c3cc(F)cc4[nH]c2c1c34 [pamiparib, Pamiparib]","Treatment-related adverse event Asthenia, All Grades",20 mg BID (n = 4),3 (75.0) n (%)
same,"Treatment-related adverse event Asthenia, Grade ≥3",20 mg BID (n = 4),0 n (%)
same,"Treatment-related adverse event Decreased appetite, All Grades",20 mg BID (n = 4),3 (75.0) n (%)
same,"Treatment-related adverse event Decreased appetite, Grade ≥3",20 mg BID (n = 4),0 n (%)
same,"Treatment-related adverse event Decreased hemoglobin, All Grades",20 mg BID (n = 4),0 n (%)
same,"Treatment-related adverse event Decreased hemoglobin, Grade ≥3",20 mg BID (n = 4),0 n (%)
same,"Treatment-related adverse event Decreased neutrophil count, All Grades",20 mg BID (n = 4),1 (25.0) n (%)
same,"Treatment-related adverse event Decreased neutrophil count, Grade ≥3",20 mg BID (n = 4),0 n (%)
same,"Treatment-related adverse event Decreased platelet count, All Grades",20 mg BID (n = 4),0 n (%)
same,"Treatment-related adverse event Decreased platelet count, Grade ≥3",20 mg BID (n = 4),0 n (%)
same,"Treatment-related adverse event Decreased white blood cell count, All Grades",20 mg BID (n = 4),2 (50.0) n (%)
same,"Treatment-related adverse event Decreased white blood cell count, Grade ≥3",20 mg BID (n = 4),0 n (%)
same,"Treatment-related adverse event Diarrhea, All Grades",20 mg BID (n = 4),0 n (%)
same,"Treatment-related adverse event Diarrhea, Grade ≥3",20 mg BID (n = 4),0 n (%)
same,"Treatment-related adverse event Increased GGT, All Grades",20 mg BID (n = 4),1 (25.0) n (%)
same,"Treatment-related adverse event Increased GGT, Grade ≥3",20 mg BID (n = 4),0 n (%)
same,"Treatment-related adverse event Increased conjugated bilirubin, All Grades",20 mg BID (n = 4),1 (25.0) n (%)
same,"Treatment-related adverse event Increased conjugated bilirubin, Grade ≥3",20 mg BID (n = 4),0 n (%)
same,"Treatment-related adverse event Nausea, All Grades",20 mg BID (n = 4),4 (100.0) n (%)
same,"Treatment-related adverse event Nausea, Grade ≥3",20 mg BID (n = 4),0 n (%)
same,"Treatment-related adverse event Prolonged electrocardiogram QT, All Grades",20 mg BID (n = 4),1 (25.0) n (%)
same,"Treatment-related adverse event Prolonged electrocardiogram QT, Grade ≥3",20 mg BID (n = 4),1 (25.0) n (%)
same,"Treatment-related adverse event Somnolence, All Grades",20 mg BID (n = 4),1 (25.0) n (%)
same,"Treatment-related adverse event Somnolence, Grade ≥3",20 mg BID (n = 4),0 n (%)
same,"Treatment-related adverse event Tachycardia, All Grades",20 mg BID (n = 4),0 n (%)
same,"Treatment-related adverse event Tachycardia, Grade ≥3",20 mg BID (n = 4),0 n (%)
same,"Treatment-related adverse event Vomiting, All Grades",20 mg BID (n = 4),1 (25.0) n (%)
same,"Treatment-related adverse event Vomiting, Grade ≥3",20 mg BID (n = 4),0 n (%)
same,Discontinued treatment: Adverse event,20 mg BID (n=4),0
same,"Treatment-related adverse event Asthenia, All Grades",40 mg BID (n = 4),4 (100.0) n (%)
same,"Treatment-related adverse event Asthenia, Grade ≥3",40 mg BID (n = 4),0 n (%)
same,"Treatment-related adverse event Decreased appetite, All Grades",40 mg BID (n = 4),3 (75.0) n (%)
same,"Treatment-related adverse event Decreased appetite, Grade ≥3",40 mg BID (n = 4),0 n (%)
same,"Treatment-related adverse event Decreased hemoglobin, All Grades",40 mg BID (n = 4),1 (25.0) n (%)
same,"Treatment-related adverse event Decreased hemoglobin, Grade ≥3",40 mg BID (n = 4),0 n (%)
same,"Treatment-related adverse event Decreased neutrophil count, All Grades",40 mg BID (n = 4),3 (75.0) n (%)
same,"Treatment-related adverse event Decreased neutrophil count, Grade ≥3",40 mg BID (n = 4),0 n (%)
same,"Treatment-related adverse event Decreased platelet count, All Grades",40 mg BID (n = 4),0 n (%)
same,"Treatment-related adverse event Decreased platelet count, Grade ≥3",40 mg BID (n = 4),0 n (%)
same,"Treatment-related adverse event Decreased white blood cell count, All Grades",40 mg BID (n = 4),3 (75.0) n (%)
same,"Treatment-related adverse event Decreased white blood cell count, Grade ≥3",40 mg BID (n = 4),0 n (%)
same,"Treatment-related adverse event Diarrhea, All Grades",40 mg BID (n = 4),1 (25.0) n (%)
same,"Treatment-related adverse event Diarrhea, Grade ≥3",40 mg BID (n = 4),0 n (%)
same,"Treatment-related adverse event Increased GGT, All Grades",40 mg BID (n = 4),1 (25.0) n (%)
same,"Treatment-related adverse event Increased GGT, Grade ≥3",40 mg BID (n = 4),0 n (%)
same,"Treatment-related adverse event Increased conjugated bilirubin, All Grades",40 mg BID (n = 4),1 (25.0) n (%)
same,"Treatment-related adverse event Increased conjugated bilirubin, Grade ≥3",40 mg BID (n = 4),0 n (%)
same,"Treatment-related adverse event Nausea, All Grades",40 mg BID (n = 4),3 (75.0) n (%)
same,"Treatment-related adverse event Nausea, Grade ≥3",40 mg BID (n = 4),0 n (%)
same,"Treatment-related adverse event Prolonged electrocardiogram QT, All Grades",40 mg BID (n = 4),1 (25.0) n (%)
same,"Treatment-related adverse event Prolonged electrocardiogram QT, Grade ≥3",40 mg BID (n = 4),0 n (%)
same,"Treatment-related adverse event Somnolence, All Grades",40 mg BID (n = 4),1 (25.0) n (%)
same,"Treatment-related adverse event Somnolence, Grade ≥3",40 mg BID (n = 4),0 n (%)
same,"Treatment-related adverse event Tachycardia, All Grades",40 mg BID (n = 4),1 (25.0) n (%)
same,"Treatment-related adverse event Tachycardia, Grade ≥3",40 mg BID (n = 4),0 n (%)
same,"Treatment-related adverse event Vomiting, All Grades",40 mg BID (n = 4),1 (25.0) n (%)
same,"Treatment-related adverse event Vomiting, Grade ≥3",40 mg BID (n = 4),0 n (%)
same,Discontinued treatment: Adverse event,40 mg BID (n=4),0
same,"Treatment-related adverse event Asthenia, All Grades",60 mg BID (n = 7),5 (71.4) n (%)
same,"Treatment-related adverse event Asthenia, Grade ≥3",60 mg BID (n = 7),0 n (%)
same,"Treatment-related adverse event Decreased appetite, All Grades",60 mg BID (n = 7),3 (42.9) n (%)
same,"Treatment-related adverse event Decreased appetite, Grade ≥3",60 mg BID (n = 7),0 n (%)
same,"Treatment-related adverse event Decreased hemoglobin, All Grades",60 mg BID (n = 7),5 (71.4) n (%)
same,"Treatment-related adverse event Decreased hemoglobin, Grade ≥3",60 mg BID (n = 7),3 (42.9) n (%)
same,"Treatment-related adverse event Decreased neutrophil count, All Grades",60 mg BID (n = 7),4 (57.1) n (%)
same,"Treatment-related adverse event Decreased neutrophil count, Grade ≥3",60 mg BID (n = 7),2 (28.6) n (%)
same,"Treatment-related adverse event Decreased platelet count, All Grades",60 mg BID (n = 7),3 (42.9) n (%)
same,"Treatment-related adverse event Decreased platelet count, Grade ≥3",60 mg BID (n = 7),1 (14.3) n (%)
same,"Treatment-related adverse event Decreased white blood cell count, All Grades",60 mg BID (n = 7),5 (71.4) n (%)
